Data published in ChEMBL document CHEMBL5338775, “Discovery of a Novel Class of PROTACs as Potent and Selective Estrogen Receptor α Degraders to Overcome Endocrine-Resistant Breast Cancer In Vitro and In Vivo” (J Med Chem, 2023).
Activity calls are given as the source filed them. The calls are words filed in the database; no cut-off is given here.

Key:
[1] = biological target: T1, Estrogen receptor (Homo sapiens, UniProt P03372)
T1 sequence (P03372 whole entry): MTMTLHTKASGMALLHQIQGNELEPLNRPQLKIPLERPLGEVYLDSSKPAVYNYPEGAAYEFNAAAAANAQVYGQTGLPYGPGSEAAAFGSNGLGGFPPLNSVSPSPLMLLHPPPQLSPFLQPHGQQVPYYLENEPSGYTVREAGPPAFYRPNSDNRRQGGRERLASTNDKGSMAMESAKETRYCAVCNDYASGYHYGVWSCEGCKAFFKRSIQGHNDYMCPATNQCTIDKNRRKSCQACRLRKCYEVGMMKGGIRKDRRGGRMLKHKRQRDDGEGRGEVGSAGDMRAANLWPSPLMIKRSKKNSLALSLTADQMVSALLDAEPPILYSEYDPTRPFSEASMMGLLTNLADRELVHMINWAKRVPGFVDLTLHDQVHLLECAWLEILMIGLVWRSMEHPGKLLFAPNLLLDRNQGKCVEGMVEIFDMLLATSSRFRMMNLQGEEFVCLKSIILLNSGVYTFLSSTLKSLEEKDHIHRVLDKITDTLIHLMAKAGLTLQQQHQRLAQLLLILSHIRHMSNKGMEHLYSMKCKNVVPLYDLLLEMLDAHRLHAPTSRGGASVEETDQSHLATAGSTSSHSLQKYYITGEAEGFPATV

[2] = system: MCF7; experiment: cells; conditions: Homo sapiens, MCF7, 72 h
[3] = biological target: T2, Estrogen receptor beta (Homo sapiens, UniProt Q92731)
[4] = biological target: T2, Estrogen receptor beta; experiment: Binding affinity to ERbeta (unknown origin) assessed as relative binding affinity incubated for 2 hrs by fluorescence polarization assay relative to estradiol
[5] = system: T47D; experiment: cells; conditions: Homo sapiens, 72 h
[6] = system: T47D; experiment: cells; conditions: Homo sapiens, 72 h; remark: listed apart in the source
[7] = Selectivity ratio of relative binding affinity for ERalpha (unknown origin) to relative binding affinity to ERbeta (unknown origin)
[8] = biological target: T3, von Hippel-Lindau disease tumor suppressor/Estrogen receptor (Homo sapiens) (UniProt P03372+P40337); experiment: PROTAC activity at VHL/wild type ERalpha in ER-positive human MCF7 cells assessed as induction of ERalpha degradation at 1 uM incubated for 12 hrs by Western blot analysis; type: cell-based
[9] = system: T47D; experiment: cells; conditions: Homo sapiens, 72 h; remark: listed apart in the source
[10] = Selectivity index, ratio of Ki for ERalpha (unknown origin) to Ki for ERbeta (unknown origin)
[11] = cells; conditions: Homo sapiens, Tamoxifen-resistant LCC2 cell, 72 h
[12] = system: MDA-MB-231; experiment: cells; conditions: Homo sapiens, MDA-MB-231, 72 h
[13] = in vitro; conditions: human, MCF-10A cells
[14] = biological target: T3, von Hippel-Lindau disease tumor suppressor/Estrogen receptor (Homo sapiens); experiment: PROTAC activity at VHL/ERalpha in ER-positive human MCF7 cells assessed as induction of ERalpha degradation at 1 to 5 uM incubated for 12 hrs by Western blot analysis; type: cell-based; conditions: dose 1-5 µM
[15] = biological target: T3, von Hippel-Lindau disease tumor suppressor/Estrogen receptor (Homo sapiens); experiment: PROTAC activity at VHL/wild type ERalpha in ER-positive human T47D cells assessed as induction of ERalpha degradation at 2 uM incubated for 12 hrs by Western blot analysis; type: cell-based
[16] = biological target: T3, von Hippel-Lindau disease tumor suppressor/Estrogen receptor (Homo sapiens); experiment: PROTAC activity at VHL/ERalpha in ER-positive human tamoxifen-resistant LCC2 cells assessed as induction of ERalpha degradation at 2 uM incubated for 12 hrs by Western blot analysis; type: cell-based; conditions: tamoxifen-resistant LCC2 cell
[17] = biological target: Protein cereblon/Estrogen receptor (Homo sapiens) (UniProt P03372+Q96SW2); experiment: PROTAC activity at CRBN/wild type ERalpha in ER-positive human MCF7 cells assessed as induction of ERalpha degradation at 1 uM incubated for 12 hrs by Western blot analysis; type: cell-based
[18] = system: MCF7; experiment: Antitumor activity against human tamoxifen-sensitive MCF7 cells xenografted in BALB/c nude mouse assessed as inhibition of tumor growth at 5 micromol/kg, ip administered once every 2 days and measured every 2 days; type: functional, organism-based; conditions: dose 5.0 µmol/kg
[19] = system: MCF7; experiment: Antitumor activity against human tamoxifen-sensitive MCF7 cells xenografted in BALB/c nude mouse assessed as increase in tumor necrosis area at 5 micromol/kg, ip administered once every 2 days by […] staining based analysis; type: functional, organism-based; conditions: dose 5.0 µmol/kg
[20] = system: MCF7; experiment: Antitumor activity against human tamoxifen-sensitive MCF7 cells xenografted in BALB/c nude mouse assessed as reduction in cell proliferation at 5 micromol/kg, ip administered once every 2 days by ki67 staining based analysis; type: functional, organism-based; conditions: dose 5.0 µmol/kg
[21] = system: Mus musculus; experiment: In vivo protac activity at VHL/ERalpha in BALB/c nude mouse xenografted with human tamoxifen-sensitive MCF7 cells assessed as reduction in ERalpha protein levels in tumor at 5 micromol/kg, ip administered once every 2 days by Western blot analysis; type: functional, organism-based; conditions: dose 5.0 µmol/kg

T3 sequence (P40337 whole entry, looked up, one chain of several): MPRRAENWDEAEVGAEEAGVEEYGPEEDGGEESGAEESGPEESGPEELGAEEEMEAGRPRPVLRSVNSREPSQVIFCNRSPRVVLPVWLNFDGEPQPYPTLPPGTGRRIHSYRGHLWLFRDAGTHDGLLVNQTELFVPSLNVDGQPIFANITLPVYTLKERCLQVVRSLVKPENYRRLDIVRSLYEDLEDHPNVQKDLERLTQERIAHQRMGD
T2 sequence (Q92731 whole entry): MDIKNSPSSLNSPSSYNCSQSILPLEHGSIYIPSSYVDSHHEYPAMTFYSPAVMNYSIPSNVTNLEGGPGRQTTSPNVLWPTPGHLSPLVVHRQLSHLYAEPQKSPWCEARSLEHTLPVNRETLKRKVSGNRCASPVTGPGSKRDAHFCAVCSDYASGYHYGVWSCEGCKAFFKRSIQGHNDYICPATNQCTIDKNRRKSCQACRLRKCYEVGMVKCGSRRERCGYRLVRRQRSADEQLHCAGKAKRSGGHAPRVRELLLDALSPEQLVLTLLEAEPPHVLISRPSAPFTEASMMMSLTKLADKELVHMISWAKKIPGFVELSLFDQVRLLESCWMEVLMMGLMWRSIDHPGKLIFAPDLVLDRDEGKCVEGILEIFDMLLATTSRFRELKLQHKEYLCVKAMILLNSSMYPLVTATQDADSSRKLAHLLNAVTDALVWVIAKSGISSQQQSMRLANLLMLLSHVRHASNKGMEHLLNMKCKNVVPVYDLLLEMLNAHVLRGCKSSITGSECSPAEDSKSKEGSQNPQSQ
Sequence of Protein cereblon/Estrogen receptor (Homo sapiens) (Q96SW2 whole entry, looked up, one chain of several): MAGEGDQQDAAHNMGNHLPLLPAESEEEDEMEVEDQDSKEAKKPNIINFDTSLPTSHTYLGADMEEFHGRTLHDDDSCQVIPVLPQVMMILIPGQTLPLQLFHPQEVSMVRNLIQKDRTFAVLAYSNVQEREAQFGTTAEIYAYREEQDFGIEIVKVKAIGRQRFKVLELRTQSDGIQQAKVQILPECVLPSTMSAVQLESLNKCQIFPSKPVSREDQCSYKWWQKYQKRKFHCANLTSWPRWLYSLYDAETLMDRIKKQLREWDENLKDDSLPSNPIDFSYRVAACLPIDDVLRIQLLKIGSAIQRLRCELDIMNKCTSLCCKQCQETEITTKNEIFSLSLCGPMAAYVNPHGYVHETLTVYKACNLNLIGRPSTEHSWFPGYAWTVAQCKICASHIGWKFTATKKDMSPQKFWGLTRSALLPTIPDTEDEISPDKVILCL

| SMILES | Ki [1] [µM] | IC50 [2] [µM] | Ki [3] [µM] | RBA [4] [%] | IC50 [5] [µM] | IC50 [6] [µM] | Selectivity ratio [7] | Activity [8] | IC50 [9] [µM] | Ratio Ki [10] | IC50 [11] [µM] | IC50 [12] [µM] | IC50 at 72 h [13] [µM] | also measured |
| --- | --- | --- | --- | --- | --- | --- | --- | --- | --- | --- | --- | --- | --- | --- |
| COc1ccc(N(CC(F)(F)F)S(=O)(=O)C2CC3OC2C(c2ccc(OCCCCCC(=O)N[C@H](C(=O)N4C[C@H](O)C[C@H]4C(=O)N[C@@H](C)c4ccc(-c5scnc5C)cc4)C(C)(C)C)cc2)=C3c2ccc(O)cc2)cc1 (some centres not stated) | 2.54 | > 10 | 26.2 | 0.03 | > 30 | > 30 | 2.67 | inactive | > 30 | 10.3 | > 30 | > 100 | > 100 | – |
| CCN(c1ccc(OCCCCCC(=O)N[C@H](C(=O)N2C[C@@H](O)C[C@H]2C(=O)N[C@@H](C)c2ccc(-c3scnc3C)cc2)C(C)(C)C)cc1)S(=O)(=O)C1CC2OC1C(c1ccc(O)cc1)=C2c1ccc(O)cc1 (some centres not stated) | 1.56 | > 50 | 4.91 | 0.16 | > 50 | > 50 | 0.81 | – | > 50 | 3.15 | > 50 | > 100 | > 100 | Activity [14]: inactive |
| Cc1ncsc1-c1ccc([C@H](C)NC(=O)[C@@H]2C[C@H](O)CN2C(=O)[C@@H](NC(=O)CCCCCOc2ccc(N(CC(F)(F)F)S(=O)(=O)C3CC4OC3C(c3ccc(O)cc3)=C4c3ccc(O)cc3)cc2)C(C)(C)C)cc1 (some centres not stated) | 2.54 | > 50 | 15.7 | 0.05 | > 50 | > 50 | 1.6 | – | > 50 | 6.2 | > 50 | > 100 | > 100 | Activity [14]: inactive |
| COc1ccc(N(CC(F)(F)F)S(=O)(=O)C2CC3OC2C(c2ccc(OCCCCCC(=O)N[C@H](C(=O)N4C[C@H](O)C[C@H]4C(=O)NCc4ccc(-c5scnc5C)cc4)C(C)(C)C)cc2)=C3c2ccc(O)cc2)cc1 (some centres not stated) | 1.85 | > 10 | 11.2 | 0.07 | > 30 | > 30 | 1.57 | inactive | > 30 | 6.08 | > 30 | > 100 | > 100 | – |
| Cc1ncsc1-c1ccc(CNC(=O)[C@@H]2C[C@@H](O)CN2C(=O)[C@@H](NC(=O)CCCCCOc2ccc(N(CC(F)(F)F)S(=O)(=O)C3CC4OC3C(c3ccc(O)cc3)=C4c3ccc(O)cc3)cc2)C(C)(C)C)cc1 (some centres not stated) | 2.9 | 0.11 | 19.7 | 0.04 | 11.3 | 9.28 | 1.75 | Active | 12.6 | 6.78 | 13 | > 100 | 1.35 | Activity [15]: Active; Activity [16]: Active |
| CCN(c1ccc(OCCCCCC(=O)N[C@H](C(=O)N2C[C@H](O)C[C@H]2C(=O)NCc2ccc(-c3scnc3C)cc2)C(C)(C)C)cc1)S(=O)(=O)C1CC2OC1C(c1ccc(O)cc1)=C2c1ccc(O)cc1 (some centres not stated) | 1.85 | 1.61 | 9.83 | 0.08 | 0.73 | 1.78 | 1.38 | Active | 0.76 | 5.32 | 14.2 | > 100 | 5.17 | Activity [15]: Active; Activity [16]: Active |
| O=C(COc1ccc(C2CCC(=O)NC2=O)cc1)NCCCCCCNC(=O)COc1ccc(N(CC(F)(F)F)S(=O)(=O)C2CC3OC2C(c2ccc(O)cc2)=C3c2ccc(O)cc2)cc1 (configuration not stated) | 1.13 | 6.52 | 7.15 | 0.11 | > 30 | > 30 | 1.64 | – | > 30 | 6.34 | > 30 | > 100 | > 30 | Activity [17]: Active |
| CC/C(=C(\c1ccccc1)c1ccc(OCCN(C)C)cc1)c1ccccc1 | – | – | – | – | – | – | – | – | – | – | – | – | – | inhibition [18]: Active; Activity [19]: Active; Activity [20]: Active; Activity [21]: inactive |
| O=C(COc1ccc(C2CCC(=O)NC2=O)cc1)NCCNC(=O)COc1ccc(N(CC(F)(F)F)S(=O)(=O)C2CC3OC2C(c2ccc(O)cc2)=C3c2ccc(O)cc2)cc1 (configuration not stated) | 0.97 | 1.14 | 4.91 | 0.16 | 19.7 | 21.4 | 1.31 | – | 17.3 | 5.08 | 21 | > 100 | 13.7 | Activity [17]: Active |
